Experimental data as given in ChEMBL document CHEMBL1201862, “PubChem BioAssay data set” (2004).
Active and inactive are the calls of the source.

What was measured:
[1] = cytotoxicity in HEK293 background cells – cell-based, dry powder, set 2, counter-screen for EBV LMP1 inhibitor project, dose response (AID 624374); type: functional
Protein skinhead-1 = target: T1, Protein skinhead-1 (Caenorhabditis elegans, UniProt P34707); type: functional
T1 sequence (P34707 whole entry): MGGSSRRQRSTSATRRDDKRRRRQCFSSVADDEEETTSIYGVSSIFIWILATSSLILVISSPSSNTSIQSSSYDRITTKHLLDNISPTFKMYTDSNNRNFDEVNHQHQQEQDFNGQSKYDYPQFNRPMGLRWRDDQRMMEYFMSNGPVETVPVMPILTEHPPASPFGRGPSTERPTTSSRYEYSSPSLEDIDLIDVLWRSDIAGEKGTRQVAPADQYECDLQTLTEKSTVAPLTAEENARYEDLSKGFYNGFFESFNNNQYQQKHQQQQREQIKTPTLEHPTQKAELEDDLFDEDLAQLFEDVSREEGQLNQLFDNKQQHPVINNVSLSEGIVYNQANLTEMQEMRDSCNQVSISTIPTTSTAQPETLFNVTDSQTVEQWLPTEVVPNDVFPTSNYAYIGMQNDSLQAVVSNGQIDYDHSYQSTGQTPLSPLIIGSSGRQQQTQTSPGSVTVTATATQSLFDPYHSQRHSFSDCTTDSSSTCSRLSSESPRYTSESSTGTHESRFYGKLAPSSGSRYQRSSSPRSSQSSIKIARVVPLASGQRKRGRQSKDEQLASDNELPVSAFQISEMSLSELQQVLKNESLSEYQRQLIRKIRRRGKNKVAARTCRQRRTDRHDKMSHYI

Cytochrome P450 2C9 = Cytochrome P450 2C9 (Homo sapiens, UniProt P11712)
Sequence of Cytochrome P450 2C9 (P11712 whole entry): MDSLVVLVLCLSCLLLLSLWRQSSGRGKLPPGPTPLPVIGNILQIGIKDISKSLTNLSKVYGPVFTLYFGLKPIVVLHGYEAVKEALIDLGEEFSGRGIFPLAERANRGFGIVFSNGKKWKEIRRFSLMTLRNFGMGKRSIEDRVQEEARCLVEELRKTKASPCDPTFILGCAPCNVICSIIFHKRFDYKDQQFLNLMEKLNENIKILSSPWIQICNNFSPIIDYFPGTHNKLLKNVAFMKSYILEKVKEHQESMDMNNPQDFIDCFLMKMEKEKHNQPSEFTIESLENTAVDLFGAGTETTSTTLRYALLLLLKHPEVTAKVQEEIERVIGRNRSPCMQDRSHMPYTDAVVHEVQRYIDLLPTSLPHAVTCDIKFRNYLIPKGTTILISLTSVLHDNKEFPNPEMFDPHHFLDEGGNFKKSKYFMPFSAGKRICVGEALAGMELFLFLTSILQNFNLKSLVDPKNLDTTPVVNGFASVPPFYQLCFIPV

Cytochrome P450 3A4 = Cytochrome P450 3A4 (Homo sapiens, UniProt P08684);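 further: CYP3A4 tested as one member of a cytochrome P450 panel screen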
Sequence of Cytochrome P450 3A4 (P08684 whole entry): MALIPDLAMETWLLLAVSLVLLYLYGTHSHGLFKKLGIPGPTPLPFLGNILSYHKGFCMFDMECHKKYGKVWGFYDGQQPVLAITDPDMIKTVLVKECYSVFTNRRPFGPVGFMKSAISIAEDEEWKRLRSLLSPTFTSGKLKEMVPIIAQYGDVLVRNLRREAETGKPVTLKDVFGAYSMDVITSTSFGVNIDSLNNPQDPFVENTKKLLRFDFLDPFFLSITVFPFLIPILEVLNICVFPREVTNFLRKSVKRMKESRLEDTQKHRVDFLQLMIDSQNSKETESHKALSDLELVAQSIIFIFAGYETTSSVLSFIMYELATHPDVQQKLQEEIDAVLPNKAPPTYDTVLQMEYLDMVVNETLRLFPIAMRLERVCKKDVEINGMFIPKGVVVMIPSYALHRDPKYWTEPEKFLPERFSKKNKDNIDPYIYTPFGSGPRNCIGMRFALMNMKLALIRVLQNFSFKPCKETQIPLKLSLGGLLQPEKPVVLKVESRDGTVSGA

Cytochrome P450 2D6 = Cytochrome P450 2D6 (Homo sapiens, UniProt P10635);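 further: CYP2D6 member of a cytochrome P450 panel assay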
Sequence of Cytochrome P450 2D6 (P10635 whole entry): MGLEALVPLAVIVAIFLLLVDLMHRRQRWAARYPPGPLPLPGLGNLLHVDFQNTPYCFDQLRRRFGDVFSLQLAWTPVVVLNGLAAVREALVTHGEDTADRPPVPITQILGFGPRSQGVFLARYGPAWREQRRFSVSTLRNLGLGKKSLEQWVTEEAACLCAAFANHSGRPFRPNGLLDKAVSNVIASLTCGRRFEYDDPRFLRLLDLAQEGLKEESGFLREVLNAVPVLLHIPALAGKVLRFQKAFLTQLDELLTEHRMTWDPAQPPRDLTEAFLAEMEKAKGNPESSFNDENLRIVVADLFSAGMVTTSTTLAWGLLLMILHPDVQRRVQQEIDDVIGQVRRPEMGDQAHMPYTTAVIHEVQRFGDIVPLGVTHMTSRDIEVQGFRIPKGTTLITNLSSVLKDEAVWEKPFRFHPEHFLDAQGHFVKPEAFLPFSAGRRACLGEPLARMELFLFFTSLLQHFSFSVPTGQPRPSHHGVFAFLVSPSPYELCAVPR

HeLa [2] = test: viability loss in HeLa cells – cell-based, ATP luminescence, cherry-pick samples, cytotoxicity control, dose response (AID 687004); type: functional; conditions: Homo sapiens
[3] = target: Hepatocyte nuclear factor 4-alpha (Homo sapiens, UniProt P41235); type: functional, cell-based;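 further: biochemical luminescence-based dose-response counterscreen measuring inhibition of HNF4 dimerization, run alongside a screen for blockers of ABHD5–perilipin-5 interaction; split luciferase complementation of HNF4 fusion proteins in cell lysate measuring dimerization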
Sequence of Hepatocyte nuclear factor 4-alpha (P41235 whole entry, the tested form may be a part): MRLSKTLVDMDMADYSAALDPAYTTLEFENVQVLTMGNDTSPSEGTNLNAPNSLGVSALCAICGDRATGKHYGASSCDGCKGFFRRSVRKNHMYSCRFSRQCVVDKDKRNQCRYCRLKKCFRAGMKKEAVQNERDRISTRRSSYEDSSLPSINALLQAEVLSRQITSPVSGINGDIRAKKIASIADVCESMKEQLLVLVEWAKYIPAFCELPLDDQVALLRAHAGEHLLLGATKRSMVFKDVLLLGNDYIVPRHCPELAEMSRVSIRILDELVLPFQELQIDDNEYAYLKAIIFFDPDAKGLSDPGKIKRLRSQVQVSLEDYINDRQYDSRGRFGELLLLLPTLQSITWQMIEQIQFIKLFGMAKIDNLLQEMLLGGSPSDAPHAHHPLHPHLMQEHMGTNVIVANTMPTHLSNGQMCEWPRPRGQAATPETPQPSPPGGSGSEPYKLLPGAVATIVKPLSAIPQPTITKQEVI

HeLa [4] = test: ATP-based viability loss in HeLa cells – cell-based, CellTiter-Glo luminescence, cherry-pick samples, cytotoxicity control for MITF activator project, dose response (AID 540259); type: functional; conditions: Homo sapiens
Beta-lactamase [5] = target: Beta-lactamase (Pseudomonas aeruginosa, UniProt Q79MP6);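 further: biochemical dose-response test of metallo-beta-lactamase enzyme inhibition, read out by epi-absorbance; purified recombinant IMP-1 metallo-beta-lactamase with nitrocefin as substrate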
Sequence of Beta-lactamase (Pseudomonas aeruginosa, UniProt Q79MP6) (Q79MP6 whole entry): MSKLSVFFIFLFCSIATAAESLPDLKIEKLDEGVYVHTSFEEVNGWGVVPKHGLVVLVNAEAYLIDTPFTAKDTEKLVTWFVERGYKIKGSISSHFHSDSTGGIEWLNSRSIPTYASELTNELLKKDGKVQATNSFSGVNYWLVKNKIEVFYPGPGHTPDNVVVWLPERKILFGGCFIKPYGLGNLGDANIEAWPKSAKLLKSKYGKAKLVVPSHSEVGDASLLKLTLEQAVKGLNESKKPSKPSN

Beta-lactamase [6] = target: Beta-lactamase (Salmonella choleraesuis (strain SC-B67), UniProt Q5J463)
Sequence of Beta-lactamase (Salmonella choleraesuis (strain SC-B67), UniProt Q5J463) (Q5J463 whole entry): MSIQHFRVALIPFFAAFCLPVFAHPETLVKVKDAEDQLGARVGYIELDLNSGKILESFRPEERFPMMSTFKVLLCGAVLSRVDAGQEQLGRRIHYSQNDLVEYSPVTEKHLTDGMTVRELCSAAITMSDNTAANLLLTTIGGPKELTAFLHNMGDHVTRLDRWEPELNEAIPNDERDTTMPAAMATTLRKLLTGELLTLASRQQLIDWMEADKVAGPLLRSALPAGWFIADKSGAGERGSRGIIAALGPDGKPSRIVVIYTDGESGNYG

[7] = target: T2, DNA repair protein RAD52 homolog (Homo sapiens, UniProt P43351); type: functional, biochemical
T2 sequence (P43351 whole entry): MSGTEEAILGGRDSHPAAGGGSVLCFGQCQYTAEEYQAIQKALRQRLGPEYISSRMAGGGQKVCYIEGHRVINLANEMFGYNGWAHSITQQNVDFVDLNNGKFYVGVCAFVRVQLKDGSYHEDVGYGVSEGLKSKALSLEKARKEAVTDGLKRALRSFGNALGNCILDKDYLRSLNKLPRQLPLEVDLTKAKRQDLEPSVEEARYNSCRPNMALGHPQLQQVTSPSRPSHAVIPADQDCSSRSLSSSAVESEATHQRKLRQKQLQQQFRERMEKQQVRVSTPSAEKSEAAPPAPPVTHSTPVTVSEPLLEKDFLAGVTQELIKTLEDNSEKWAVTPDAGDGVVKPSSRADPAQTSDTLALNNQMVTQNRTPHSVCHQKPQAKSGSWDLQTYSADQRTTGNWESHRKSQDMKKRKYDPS

[8] = target: DNA repair and recombination protein RAD54-like (Homo sapiens, UniProt Q92698); test: RAD54 Holliday junction migration blockers – biochemical, fluorescence, cherry-picked samples, dose series, confirmation (AID 651657); type: functional
Sequence of DNA repair and recombination protein RAD54-like (Q92698 whole entry, the tested form may be a part): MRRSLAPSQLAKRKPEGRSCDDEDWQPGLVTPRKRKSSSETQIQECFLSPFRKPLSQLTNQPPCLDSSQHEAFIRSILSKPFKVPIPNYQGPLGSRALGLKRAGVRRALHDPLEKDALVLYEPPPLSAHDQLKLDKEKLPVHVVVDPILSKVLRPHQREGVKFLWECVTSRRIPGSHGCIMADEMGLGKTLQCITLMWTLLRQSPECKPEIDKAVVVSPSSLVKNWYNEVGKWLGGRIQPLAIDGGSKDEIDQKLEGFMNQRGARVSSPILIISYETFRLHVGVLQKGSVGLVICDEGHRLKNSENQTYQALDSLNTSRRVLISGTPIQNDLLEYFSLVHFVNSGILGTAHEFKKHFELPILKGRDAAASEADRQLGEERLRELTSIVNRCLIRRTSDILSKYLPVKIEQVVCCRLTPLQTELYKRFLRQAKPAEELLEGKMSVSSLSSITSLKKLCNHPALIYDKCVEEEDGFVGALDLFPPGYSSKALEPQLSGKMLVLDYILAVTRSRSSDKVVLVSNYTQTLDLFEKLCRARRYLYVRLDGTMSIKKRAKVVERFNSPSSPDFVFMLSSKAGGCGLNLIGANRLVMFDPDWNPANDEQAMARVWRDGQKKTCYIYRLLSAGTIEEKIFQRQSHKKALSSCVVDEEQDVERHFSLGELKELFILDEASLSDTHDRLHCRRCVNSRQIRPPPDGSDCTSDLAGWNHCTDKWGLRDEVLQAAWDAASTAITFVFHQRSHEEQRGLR

[9] = inhibition of ARNT PAS-B/TACC3 complex formation – biochemical, AlphaScreen, cherry-picked samples, confirmation (AID 651703); type: functional, Homo sapiens;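 further: His-tagged ARNT PAS-B domain paired with GST-TACC3 E629A dimer coactivator fragment; potency of inhibitors that break up the complex and lower AlphaScreen signal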

With `C[C@H](CO)N1C[C@H](C)[C@H](CN(C)Cc2ccc(Oc3ccccc3)cc2)Oc2ccc(NC(=O)CCCN(C)C)cc2C1=O` the AbsAC35 [1] was 286.99 µM.

With `CCOC(=O)NCc1ccc2c(c1)cc(C)n2C` the IC50 (Protein skinhead-1) was > 100 µM (inactive), the AC50 (Cytochrome P450 2C9) was “inconclusive” and the AC50 (Cytochrome P450 3A4) was 14.1 µM (inconclusive). The AC50 (Cytochrome P450 2D6) was “inconclusive”.

In the case of `CC(C)CC#Cc1ccc2c(c1)O[C@@H](CN(C)C(=O)C1CCC1)[C@@H](C)CN([C@H](C)CO)S2(=O)=O`, the AC50 (HeLa [2]) is reported as > 52 µM (inactive).

In the case of `CCCc1nc(C)c2c(=O)[nH]c(-c3cc(S(=O)(=O)N4CCN(CC)CC4)ccc3OCC)nn12`, the IC50 [3] is reported as 25.1 µM (inactive).

With `CN(CC(=O)Nc1ccccc1Br)C(=O)c1cc2c(s1)CCCCC2` the AC50 (HeLa [4]) was > 350 µM (inactive).

With `COc1ccc2c(Cl)c(C(=O)NCCCn3ccnc3)sc2c1Cl` the IC50 (Beta-lactamase [5]) was > 59.6 µM (inactive) and the IC50 (Beta-lactamase [6]) was > 59.6 µM (inactive).

With `Cc1nc(NC(C)C)c2cnn(CCc3ccccc3)c2n1` the AC50 (HeLa [4]) was 84.6 µM (active).

In the case of `COc1ccc(-c2cc3nc(NCCCN(C)C)n(C)c(=O)c3s2)cc1OC`, the AC50 [7] is reported as 4.79 µM (active) and the AC50 [8] is reported as 11.5 µM (active).

In the case of `CCCCNC(=O)CCC(=O)N1CCN(C(c2ccccc2)c2ccccc2)CC1`, the AC50 [9] is reported as 81 µM (active).

With `CC(=O)Oc1ccc(C23c4ccccc4C2(OC(C)=O)c2cc(OC(C)=O)ccc23)cc1` (stereo unspecified) the IC50 [3] was 5.5 µM (active).

`C[C@H](NC(=O)C[C@H]1C=C[C@H](NC(=O)Cc2ccccn2)[C@H](CO)O1)c1ccccc1` showed an AbsAC35 [1] of 200 µM.
